Measured values as given in patent US20250134849A1, “PHARMACEUTICAL COMPOSITION FOR PREVENTING OR TREATING OCULAR DISEASE COMPRISING ENAVOGLIFLOZIN” (DAEWOONG THERAPEUTICS INC., priority 2023, published 2025).

Tested on: Macular Degeneration Animal Model
Assay: Laser-induced macular degeneration animal model, fundus fluorescein angiography
Type: in vivo, Chinchilla rabbits
Conditions: intravitreal injection 2000 μg, n=5
Experimental: Chinchilla rabbits (n=24, male) were raised at a temperature of 23±3° C., relative humidity of 55±15%, ventilation frequency of 10 to 20 times/hr, lighting time of 12 hours, and illuminance of 150 to 300 Lux. The environmental conditions such as temperature/humidity of the animal room, ventilation frequency and illuminance were measured regularly during the raising period. During the acclimation, administration, and observation periods, the rabbits were raised in a stainless-steel breeding box (W500×L800×H500 mm) at 1 animal per breeding box. The breeding boxes were cleaned every day and water bottles were exchanged every day. […]
On the 7th and 14th days after the start of administration in each group, a mydriatic agent (Mydriacyl® Eye Drops 1%) was instilled into the right eye of the rabbits, followed by anesthetizing. […] The efficacies were evaluated through retinal fundus fluorescein angiography. It was confirmed that the fluorescence intensity levels on days 7 and 14 in all macular degeneration-induced groups were higher than those in the normal control groups, G5 and G6 (p<0.001 or p<0.05).
The average fluorescence intensities of the vehicle-administered groups (G7 and G8) were set to 100% and the relative levels (%) of the fluorescence intensities measured in each animal were analyzed. […]

How did the “Fluorescence intensity at Day 7 (%), Mean” value (day 7, relative to vehicle group G7 = 100%) turn out when Aflibercept [Comparative Example 2] was run?
Its value is 93.345%.

And the “Fluorescence intensity at Day 14 (%), Mean” value (day 14, relative to vehicle group G8 = 100%)?
Its value is 69.403%.
